From patent publication US20260137703A1, “2-AMINO-PYRIDO[2,3-D]PYRIMIDIN-7(8H)-ONE AND 7-AMINO-1-PYRIMIDO[4,5-D]PYRIMIDIN-2(1 H)-ONE DERIVATIVES AS EGFR INHIBITORS FOR THE TREATMENT OF CANCER” (Cancer Research Technology Limited, priority 2022, published 2026)
Where two headings read alike, the source gives them in different places. Each block holds one compound with its values, some of them ahead of it.

Legend:
[1] = other bond, THF
[2] = target: CtermHisTag-mEGFR Wild type (Homo sapiens, UniProt P00533)
Sequence of CtermHisTag-mEGFR Wild type (P00533 whole entry): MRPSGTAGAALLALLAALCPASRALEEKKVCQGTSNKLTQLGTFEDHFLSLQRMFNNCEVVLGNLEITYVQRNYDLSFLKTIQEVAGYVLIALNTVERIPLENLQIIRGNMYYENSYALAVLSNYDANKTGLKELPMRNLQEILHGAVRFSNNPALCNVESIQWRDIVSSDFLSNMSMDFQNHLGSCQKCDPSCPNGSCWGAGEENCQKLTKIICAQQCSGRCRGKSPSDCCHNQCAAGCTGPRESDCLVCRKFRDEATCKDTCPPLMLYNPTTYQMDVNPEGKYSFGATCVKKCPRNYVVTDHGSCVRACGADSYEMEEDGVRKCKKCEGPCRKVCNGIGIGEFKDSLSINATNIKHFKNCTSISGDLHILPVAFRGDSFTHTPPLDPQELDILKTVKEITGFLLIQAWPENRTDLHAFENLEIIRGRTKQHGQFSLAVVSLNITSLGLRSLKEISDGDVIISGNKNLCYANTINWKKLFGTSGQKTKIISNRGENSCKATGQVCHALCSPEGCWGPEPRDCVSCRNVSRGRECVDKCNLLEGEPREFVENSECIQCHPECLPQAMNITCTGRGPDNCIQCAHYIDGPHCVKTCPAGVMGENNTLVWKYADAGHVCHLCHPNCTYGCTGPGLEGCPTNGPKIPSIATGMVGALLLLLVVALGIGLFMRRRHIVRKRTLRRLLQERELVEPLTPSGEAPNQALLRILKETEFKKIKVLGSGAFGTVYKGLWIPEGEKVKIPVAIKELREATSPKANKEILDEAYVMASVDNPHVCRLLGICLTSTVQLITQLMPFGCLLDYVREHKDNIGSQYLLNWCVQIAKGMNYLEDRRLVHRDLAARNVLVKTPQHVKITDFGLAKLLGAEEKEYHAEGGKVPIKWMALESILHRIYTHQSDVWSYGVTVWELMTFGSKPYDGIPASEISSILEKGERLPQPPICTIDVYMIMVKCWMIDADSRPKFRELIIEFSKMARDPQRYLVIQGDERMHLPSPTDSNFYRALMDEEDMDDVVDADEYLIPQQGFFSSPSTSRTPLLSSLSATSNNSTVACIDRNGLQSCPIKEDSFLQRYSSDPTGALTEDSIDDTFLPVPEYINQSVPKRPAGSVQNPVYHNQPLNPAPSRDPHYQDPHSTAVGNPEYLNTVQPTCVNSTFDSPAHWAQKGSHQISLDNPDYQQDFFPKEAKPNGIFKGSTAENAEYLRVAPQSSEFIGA

[3] = target: T1, Phospho-EGFR (Tyr1068) in H1975 cells (Homo sapiens, UniProt P00533, L858R/T790M); test: HTRF pEGFR/total EGFR in H1975 cells; assay type: cell-based; details: ratio pEGFR/total EGFR, compound 3 hours
T1 construct: host or cells: H1975
T1 sequence (P00533 25-1210 T790M/L858R): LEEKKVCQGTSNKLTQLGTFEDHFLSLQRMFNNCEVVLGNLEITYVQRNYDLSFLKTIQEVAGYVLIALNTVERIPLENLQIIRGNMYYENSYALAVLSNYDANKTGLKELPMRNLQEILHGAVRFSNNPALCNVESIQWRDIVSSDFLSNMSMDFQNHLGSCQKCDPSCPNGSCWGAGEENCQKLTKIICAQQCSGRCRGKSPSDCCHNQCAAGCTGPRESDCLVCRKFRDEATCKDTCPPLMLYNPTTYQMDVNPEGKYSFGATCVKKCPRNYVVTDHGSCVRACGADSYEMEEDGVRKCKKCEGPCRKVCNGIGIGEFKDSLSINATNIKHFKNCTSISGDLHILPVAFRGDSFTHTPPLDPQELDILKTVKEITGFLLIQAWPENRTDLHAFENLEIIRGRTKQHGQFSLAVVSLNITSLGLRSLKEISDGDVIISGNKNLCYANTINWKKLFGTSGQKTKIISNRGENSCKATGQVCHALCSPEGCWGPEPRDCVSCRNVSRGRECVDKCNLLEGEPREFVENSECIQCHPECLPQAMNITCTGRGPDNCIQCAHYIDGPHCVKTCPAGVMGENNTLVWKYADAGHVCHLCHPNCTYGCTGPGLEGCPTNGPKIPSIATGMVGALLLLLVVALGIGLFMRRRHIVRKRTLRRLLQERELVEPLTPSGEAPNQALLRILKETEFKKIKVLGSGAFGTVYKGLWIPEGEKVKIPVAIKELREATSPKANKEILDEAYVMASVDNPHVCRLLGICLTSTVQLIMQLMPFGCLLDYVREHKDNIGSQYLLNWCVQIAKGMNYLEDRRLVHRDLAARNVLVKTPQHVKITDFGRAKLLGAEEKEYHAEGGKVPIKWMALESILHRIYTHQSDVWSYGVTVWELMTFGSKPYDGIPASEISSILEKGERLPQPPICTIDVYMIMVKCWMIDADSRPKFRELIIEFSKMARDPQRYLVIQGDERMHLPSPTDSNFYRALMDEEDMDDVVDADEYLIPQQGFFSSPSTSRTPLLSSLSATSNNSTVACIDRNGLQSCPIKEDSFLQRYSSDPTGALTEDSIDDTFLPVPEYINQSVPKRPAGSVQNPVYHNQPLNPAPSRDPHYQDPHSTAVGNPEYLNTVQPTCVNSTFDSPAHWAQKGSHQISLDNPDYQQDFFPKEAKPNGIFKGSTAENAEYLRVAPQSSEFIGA
Procedure, shortened: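 H1975 cells (EGFR L858R/T790M) treated 3 h with compound in 0.1% DMSO, in duplicate, 24 h after plating. Lysates assayed by HTRF for pEGFR (Tyr1068) and total EGFR at 665/620 nm; values are pEGFR/total EGFR ratio as percent of 0 μM control.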

[4] = target: T2, Phospho-EGFR (Tyr1068) in H1975 C797S cells (CRISPR-edited EGFR C797S) (Homo sapiens, UniProt P00533, C797S/L858R/T790M); test: HTRF pEGFR/total EGFR in H1975 C797S cells; assay type: cell-based; details: ratio pEGFR/total EGFR, compound 3 hours
T2 construct: host or cells: H1975 C797S (CRISPR-edited)
T2 sequence (P00533 25-1210 T790M/C797S/L858R): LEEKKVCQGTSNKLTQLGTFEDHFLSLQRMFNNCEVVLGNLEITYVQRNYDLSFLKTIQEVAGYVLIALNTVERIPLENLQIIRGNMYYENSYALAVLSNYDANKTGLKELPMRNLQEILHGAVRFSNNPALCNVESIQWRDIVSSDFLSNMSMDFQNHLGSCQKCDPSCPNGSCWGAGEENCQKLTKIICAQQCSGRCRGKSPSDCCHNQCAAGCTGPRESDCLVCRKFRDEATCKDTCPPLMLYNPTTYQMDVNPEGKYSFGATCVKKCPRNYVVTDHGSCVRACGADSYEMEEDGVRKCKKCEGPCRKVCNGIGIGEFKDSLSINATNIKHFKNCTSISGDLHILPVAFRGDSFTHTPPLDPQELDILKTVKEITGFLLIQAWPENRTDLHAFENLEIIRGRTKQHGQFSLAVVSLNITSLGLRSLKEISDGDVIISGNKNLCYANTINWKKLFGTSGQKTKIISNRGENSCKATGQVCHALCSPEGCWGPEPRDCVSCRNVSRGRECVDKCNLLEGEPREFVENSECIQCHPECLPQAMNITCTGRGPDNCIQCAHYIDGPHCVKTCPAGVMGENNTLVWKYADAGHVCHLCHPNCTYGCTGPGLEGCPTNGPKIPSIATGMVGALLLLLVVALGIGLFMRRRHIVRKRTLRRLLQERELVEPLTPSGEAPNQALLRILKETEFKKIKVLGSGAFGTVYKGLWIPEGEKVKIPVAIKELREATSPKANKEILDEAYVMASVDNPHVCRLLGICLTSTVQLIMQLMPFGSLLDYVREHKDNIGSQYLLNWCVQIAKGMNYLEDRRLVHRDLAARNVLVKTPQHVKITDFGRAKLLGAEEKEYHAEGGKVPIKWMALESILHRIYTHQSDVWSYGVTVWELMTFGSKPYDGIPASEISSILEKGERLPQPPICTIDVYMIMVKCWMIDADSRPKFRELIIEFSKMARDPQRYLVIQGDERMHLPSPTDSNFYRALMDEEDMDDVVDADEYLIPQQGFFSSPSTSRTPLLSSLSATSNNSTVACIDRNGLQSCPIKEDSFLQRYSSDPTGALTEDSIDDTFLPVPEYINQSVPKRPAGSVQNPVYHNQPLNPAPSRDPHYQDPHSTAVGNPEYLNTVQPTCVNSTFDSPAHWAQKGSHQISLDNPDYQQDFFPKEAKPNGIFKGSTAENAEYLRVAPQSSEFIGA
Procedure, shortened: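 Adhered H1975 C797S cells got compound for 3 h in duplicate at 0.1% DMSO final, then were lysed 30 min at room temperature. HTRF kits quantified phospho-EGFR (Tyr1068) and total EGFR (665/620 nm); results are pEGFR/total EGFR ratio as percent of 0 μM control.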

Compound: 3^4-(4-Methylpiperazin-1-yl)-1^5-((triisopropylsilyl)ethynyl)-1^7,1^8-dihydro-4,7-dioxa-2-aza-1(2,8)-pyrido[2,3-d]pyrimidina-3(1,3)-benzenacyclononaphan-1^7-one
ring closure, isolated yield ([1]; 14-membered ring, PPh3/DEAD, 134.0 mM): 29%

Compound: 3^4-(4-Methylpiperazin-1-yl)-1^5-((triisopropylsilyl)ethynyl)-1^7,1^8-dihydro-4-oxa-2-aza-1(2, 8)-pyrido[2,3-d]pyrimidina-3(1,3)-benzenacyclodecaphan-1^7-one
ring closure, isolated yield ([1]; 15-membered ring, PPh3/DEAD, 158.0 mM): 41%

Compound: 3^4-(4-Methylpiperazin-1-yl)-1^5-[2-(triisopropylsilyl)ethynyl]-1^7,1^8-dihydro-2,4-diaza-1(2,8)-pyrido[2,3-d]pyrimidine-3(1,3)-benzenacyclooctaphane-1^7,5-dione
ring closure, isolated yield ([1]; 13-membered ring, PPh3/DEAD, 162.0 mM): 62%

Compound: 3^4-(4-methylpiperazin-1-yl)-1^5-((triisopropylsilyl)ethynyl)-1^7,1^8-dihydro-2,5-diaza-1(2,8)-pyrido[2,3-d]pyrimidina-3(1,3)-benzenacyclooctaphane-1^7,4-dione
ring closure, isolated yield ([1]; 13-membered ring, PPh3/DIAD, 43.7 mM): 20%

Compound: 3^4-(4-methylpiperazin-1-yl)-1^5-((triisopropylsilyl)ethynyl)-1^7,1^8-dihydro-6-oxa-2-aza-1(2, 8)-pyrido[2,3-d]pyrimidina-3(1,3)-benzenacyclooctaphan-1^7-one
ring closure, isolated yield ([1]; 13-membered ring, PPh3/DEAD, 82.8 mM): 77%

Compound: 4-Methyl-3^4-(4-methylpiperazin-1-yl)-1^5-((triisopropylsilyl)ethynyl)-1^7,1^8-dihydro-2,4-diaza-1(2,8)-pyrido[2,3-d]pyrimidina-3(1,3)-benzenacyclooctaphane-1^7,5-dione
ring closure, isolated yield ([1]; 13-membered ring, PPh3/DIAD, 158.0 mM): 38%

Compound: 5-Methyl-3^4-(4-methylpiperazin-1-yl)-1^5-((triisopropylsilyl)ethynyl)-1^7,1^8-dihydro-2,5-diaza-1(2,8)-pyrido[2,3-d]pyrimidina-3(1,3)-benzenacyclooctaphane-1^7,6-dione
ring closure, isolated yield ([1]; 13-membered ring, PPh3/DEAD, 158.0 mM): 75%

IC50 [2]: > 10000 nM
IC50 [3]: > 3000 nM
Compound: C=Cc1c(-c2ccccc2Cl)c(=O)n(C)c2nc(Nc3ccc(N4CCN(C)CC4)cc3OC)ncc12 [Example 171, 6-(2-chlorophenyl)-5-ethenyl-2-{[2-methoxy-4-(4-methylpiperazin-1-yl)phenyl]amino}-8-methylpyrido[2,3-d]pyrimidin-7-one]

IC50 [4]: > 3000 nM
IC50 [2]: < 1000 nM
IC50 [3]: > 3000 nM
Compound: C#Cc1cc(=O)n(C2CCCC2)c2nc(Nc3cccc(N(C)[C@H]4C[C@@H](CS(C)(=O)=O)C4)c3)ncc12 [Example 203]

Compound: (5^1S,5^3R)-1^4-(4-Methylpiperazin-1-yl)-3^5-((triisopropylsilyl)ethynyl)-3^7,3^8-dihydro-7-oxa-2-aza-3(2,8)-pyrido[2,3-d]pyrimidina-1(1,3)-benzena-5(1,3)-cyclopentanacycloheptaphan-3^7-one
ring closure, isolated yield ([1]; 14-membered ring, PPh3/DIAD, 93.0 mM): 17%
